PubChem BioAssay AID248 (DTP/NCI, 2004)
Several values for one entry are separate records, joined by “and”; a condition that tells them apart may be missing. Identical values can stand only once. Inconclusive results and toxic doses are left out. Cut-off read from the data, not from the text of the source: active = T/C of 150% or more; inactive = T/C below 125%.

Test system: L1210 leukemia ip in BDF1 mice, survival T/C
Assay: NCI In Vivo Anticancer Drug Screen. Data for tumor model L1210 Leukemia (intraperitoneal) in B6D2F1 (BDF1) mice
Details: endpoint: mean survival time, higher = longer survival
Procedure, shortened: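 Value reflects the ratio of survival in compound-treated mice to survival in vehicle-treated controls, with both groups carrying the same transplanted tumor.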

[1] = dose: 100.0 mg/kg/injection, schedule: Q04DX003 (ip), vehicle: saline
[2] = dose: 100.0 mg/kg/injection, schedule: Q01DX001 (ip), vehicle: saline
[3] = dose: 200.0 mg/kg/injection, schedule: Q01DX001 (ip), vehicle: saline
[4] = dose: 400.0 mg/kg/injection, schedule: Q01DX001 (ip), vehicle: saline
[5] = dose: 100.0 mg/kg/injection, schedule: Q01DX009 (ip), vehicle: Klucel (hydroxypropylcellulose) (HPC)
[6] = dose: 200.0 mg/kg/injection, schedule: Q01DX009 (ip), vehicle: Klucel (hydroxypropylcellulose) (HPC)
[7] = dose: 400.0 mg/kg/injection, schedule: Q01DX009 (ip), vehicle: Klucel (hydroxypropylcellulose) (HPC)
[8] = dose: 150.0 mg/kg/injection, schedule: Q01DX001 (ip), vehicle: saline
[9] = dose: 75.0 mg/kg/injection, schedule: Q01DX001 (ip), vehicle: saline
[10] = dose: 100.0 mg/kg/injection, schedule: Q04DX003 (ip), vehicle: saline with Tween-80
[11] = dose: 200.0 mg/kg/injection, schedule: Q04DX003 (ip), vehicle: saline with Tween-80
[12] = dose: 100.0 mg/kg/injection, schedule: Q04DX003 (ip), vehicle: Klucel (hydroxypropylcellulose) (HPC)
[13] = dose: 200.0 mg/kg/injection, schedule: Q04DX003 (ip), vehicle: Klucel (hydroxypropylcellulose) (HPC)

Measured: T/C

CCOC(=O)NCC(C)(CCN1CCCC1)c1cccc2ccccc12 (configuration not stated)
inactive: dose: 12.5 mg/kg/injection, schedule: Q01DX009 (ip), vehicle: saline with Tween-80 93 % of control | dose: 12.5 mg/kg/injection, schedule: Q04DX003 (ip), vehicle: Klucel (hydroxypropylcellulose) (HPC) 100 % of control | dose: 25.0 mg/kg/injection, schedule: Q01DX009 (ip), vehicle: saline with Tween-80 88 % of control | dose: 25.0 mg/kg/injection, schedule: Q04DX003 (ip), vehicle: Klucel (hydroxypropylcellulose) (HPC) 100 % of control | dose: 50.0 mg/kg/injection, schedule: Q04DX003 (ip), vehicle: Klucel (hydroxypropylcellulose) (HPC) 100 % of control

Nc1ccn(CC(=O)c2ccco2)c(=O)n1
inactive: dose: 50.0 mg/kg/injection, schedule: Q01DX009 (ip), vehicle: saline 111 % of control | dose: 100.0 mg/kg/injection, schedule: Q01DX009 (ip), vehicle: saline 111 % of control and 90 % of control | [1] 104 % of control | dose: 200.0 mg/kg/injection, schedule: Q01DX009 (ip), vehicle: saline 105 % of control | dose: 200.0 mg/kg/injection, schedule: Q04DX003 (ip), vehicle: saline 97 % of control

CC(=O)Oc1cc(C)[nH]c(=O)c1
inactive: [2] 101 % of control | [3] 105 % of control | [4] 101 % of control

CC(N)C(=O)NC(C(=O)O)C(C)O (configuration not stated)
inactive: dose: 25.0 mg/kg/injection, schedule: Q04DX002 (ip), vehicle: saline 98 % of control | dose: 50.0 mg/kg/injection, schedule: Q04DX002 (ip), vehicle: saline 121 % of control | dose: 100.0 mg/kg/injection, schedule: Q04DX002 (ip), vehicle: saline 113 % of control

ClCCN(CCN(CCCl)c1ccccc1)c1ccccc1
inactive: [5] 113 % of control | [6] 108 % of control | [7] 115 % of control

OC1C2C=CC(C2)C1O (configuration not stated)
inactive: dose: 44.0 mg/kg/injection, schedule: Q01DX001 (ip), vehicle: saline 96 % of control | dose: 66.0 mg/kg/injection, schedule: Q01DX001 (ip), vehicle: saline 100 % of control | [8] 94 % of control | [3] 106 % of control | [4] 100 % of control

Cc1ccc(SCC#CCOc2ccc(Cl)cc2)cc1
inactive: [9] 93 % of control | dose: 75.0 mg/kg/injection, schedule: Q01DX009 (ip), vehicle: saline 99 % of control | [8] 95 % of control | dose: 150.0 mg/kg/injection, schedule: Q01DX009 (ip), vehicle: saline 99 % of control | dose: 300.0 mg/kg/injection, schedule: Q01DX001 (ip), vehicle: saline 93 % of control | dose: 300.0 mg/kg/injection, schedule: Q01DX009 (ip), vehicle: saline 96 % of control

CC(=O)O[C@H]1CC[C@@]2(C)[C@@H](CC[C@@H]3[C@@H]2CC[C@]2(C)[C@@H](C(C)=O)CC[C@@H]32)C1
inactive: dose: 100.0 mg/kg/injection, schedule: Q04DX002 (ip), vehicle: Klucel (hydroxypropylcellulose) (HPC) 96 % of control | dose: 200.0 mg/kg/injection, schedule: Q04DX002 (ip), vehicle: Klucel (hydroxypropylcellulose) (HPC) 96 % of control | dose: 400.0 mg/kg/injection, schedule: Q04DX002 (ip), vehicle: Klucel (hydroxypropylcellulose) (HPC) 96 % of control

O=C(O)c1cc(N=Nc2ccc(S(=O)(=O)Nc3nccs3)cc2)ccc1O
inactive: dose: 100.0 mg/kg/injection, schedule: Q01DX001 (ip), vehicle: carboxymethylcellulose (CMC) 95 % of control | dose: 200.0 mg/kg/injection, schedule: Q01DX001 (ip), vehicle: carboxymethylcellulose (CMC) 95 % of control | dose: 400.0 mg/kg/injection, schedule: Q01DX001 (ip), vehicle: carboxymethylcellulose (CMC) 101 % of control

CCCCOC(=O)Cc1cccc2ccccc12
inactive: dose: 222.0 mg/kg/injection, schedule: Q01DX Z (ip), vehicle: methylcellulose (MC) 102 % of control | dose: 333.0 mg/kg/injection, schedule: Q01DX Z (ip), vehicle: methylcellulose (MC) 110 % of control | dose: 500.0 mg/kg/injection, schedule: Q01DX Z (ip), vehicle: methylcellulose (MC) 104 % of control

NS(=O)(=O)c1cc(Br)c2c(c1)S(=O)(=O)NCN2
inactive: dose: 65.0 mg/kg/injection, schedule: Q01DX009 (ip), vehicle: Klucel (hydroxypropylcellulose) (HPC) 102 % of control | [9] 106 % of control | dose: 135.0 mg/kg/injection, schedule: Q01DX009 (ip), vehicle: Klucel (hydroxypropylcellulose) (HPC) 88 % of control | [8] 96 % of control | [6] 100 % of control | dose: 300.0 mg/kg/injection, schedule: Q01DX009 (ip), vehicle: Klucel (hydroxypropylcellulose) (HPC) 97 % of control | dose: 600.0 mg/kg/injection, schedule: Q01DX009 (ip), vehicle: Klucel (hydroxypropylcellulose) (HPC) 88 % of control

C=CCONC(=O)Oc1ccccc1
inactive: dose: 75.0 mg/kg/injection, schedule: Q01DX001 (ip), vehicle: other 106 % of control | dose: 150.0 mg/kg/injection, schedule: Q01DX001 (ip), vehicle: other 97 % of control

CCOC(=O)NC1CCC2c3ccccc3C([N+](=O)[O-])(C1)c1ccccc12 (configuration not stated)
inactive: [10] 106 % of control | [11] 95 % of control | dose: 400.0 mg/kg/injection, schedule: Q04DX003 (ip), vehicle: saline with Tween-80 90 % of control

CC(=O)NC(CCSCc1c2ccccc2c(C)c2c1ccc1ccccc12)C(=O)O (configuration not stated)
inactive: dose: 200.0 mg/kg/injection, schedule: Q01DX009 (ip), vehicle: saline with Tween-80 92 % of control | dose: 400.0 mg/kg/injection, schedule: Q01DX009 (ip), vehicle: saline with Tween-80 90 % of control

NC(=O)N(N)CCO
inactive: [2] 102 % of control | [3] 91 % of control | [4] 93 % of control

CC(CC(=O)NC(N)=O)(NC(N)=O)NC(N)=O
inactive: dose: 100.0 mg/kg/injection, schedule: Q01DX001 (ip), vehicle: Klucel (hydroxypropylcellulose) (HPC) 100 % of control | dose: 200.0 mg/kg/injection, schedule: Q01DX001 (ip), vehicle: Klucel (hydroxypropylcellulose) (HPC) 101 % of control | dose: 400.0 mg/kg/injection, schedule: Q01DX001 (ip), vehicle: Klucel (hydroxypropylcellulose) (HPC) 95 % of control

C=CCc1ccc(OC(=O)Nc2ccccc2C)c(OC)c1
inactive: [5] 96 % of control | [6] 95 % of control

O=C(C1C2C=CC(C2)C1C(=O)N1CCCCC1)N1CCCCC1 (configuration not stated)
inactive: dose: 25.0 mg/kg/injection, schedule: Q04DX003 (ip), vehicle: saline 103 % of control | dose: 50.0 mg/kg/injection, schedule: Q04DX003 (ip), vehicle: saline 95 % of control | [10] 111 % of control | [1] 98 % of control | [11] 86 % of control

COc1cc(C(=O)O)c(O)c(OC)c1OC
inactive: [5] 96 % of control | [12] 98 % of control | [6] 106 % of control | [13] 101 % of control | [7] 101 % of control | dose: 400.0 mg/kg/injection, schedule: Q04DX003 (ip), vehicle: Klucel (hydroxypropylcellulose) (HPC) 104 % of control

Brc1ncc2ccccc2c1Br
inactive: [12] 108 % of control | [13] 94 % of control

CC(NC(=O)OCc1ccccc1)C(=O)NC1C(CO)OC(n2cnc3c(N)ncnc32)C1O (configuration not stated)
inactive: [2] 94 % of control | [3] 103 % of control | [4] 100 % of control
